Patent US20110015371A1 (Vertex Pharmaceuticals Incorporated, priority 1994, published 2011)
Structures can show the parent of a compound that is named as a salt. Non-standard residues stand in square brackets, D forms with d. Residues, ends and D or L forms follow the SMILES beside them. *: point of attachment. Pro(4R-OPh) = O=C(O)[C@@H]1C[C@@H](Oc2ccccc2)CN1; Hyp = O=C(O)[C@@H]1C[C@@H](O)CN1; Bn = c1ccc(C*)cc1; Allyl = C=CC*

Tested on: Human Peripheral Blood Mononuclear Cells (PBMC) or Enriched Adherent Mononuclear Cells
Experiment: Cell assay: IL-1β assay with human PBMC or enriched adherent mononuclear cells
Assay type: cell-based
Conditions: LPS-stimulated cells, mature IL-1β in supernatant by ELISA
Description: IL-1β Assay with a Mixed Population of Human Peripheral Blood Mononuclear Cells (PBMC) or Enriched Adherent Mononuclear Cells
Processing of pre-IL-1S by ICE can be measured in cell culture using a variety of cell sources. Human PBMC obtained from healthy donors provides a mixed population of lymphocyte subtypes and mononuclear cells that produce a spectrum of interleukins and cytokines in response to many classes of physiological stimulators. Adherent mononuclear cells from PBMC provides an enriched source of normal monocytes for selective studies of cytokine production by activated cells.
An initial dilution series of test compound in DMSO or ethanol is prepared, with a subsequent dilution into RPMI-10% FBS media (containing 2 mM L-glutamine, 10 mM HEPES, 50 U and 50 ug/ml pen/strep) respectively to yield drugs at 4× the final test concentration containing 0.4% DMSO or 0.4% ethanol. The final concentration of DMSO is 0.1% for all drug dilutions. A concentration titration which brackets the apparent Ki for a test compound determined in an ICE inhibition assay is generally used for the primary compound screen.
We generally test 5-6 compound dilutions and have performed the cellular component of the assay in duplicate, with duplicate ELISA determinations on each cell culture supernatant.
Buffy coat cells isolated from one pint human blood (yielding 40-45 ml final volume plasma plus cells) are diluted with media to 80 ml and LeukoPREP separation tubes (Becton Dickinson) are each overlaid with 10 ml of cell suspension. After 15 min centrifugation at 1500-1800×g, the plasma/media layer is aspirated and then the mononuclear cell layer is collected with a Pasteur pipette and transferred to a 15 ml conical centrifuge tube (Corning). Media is added to bring the volume to 15 ml, gently mix the cells by inversion and centrifuge at 300×g for 15 min. Resuspend the PBMC pellet in a small volume of media, count cells and adjust to 6×10^6 cells/ml.
For the cellular assay, add 1.0 ml of the cell suspension to each well of a 24-well flat bottom tissue culture plate (Corning), 0.5 ml test compound dilution and 0.5 ml LPS solution (Sigma #L-3012; 20 ng/ml solution prepared in complete RPMI media; final LPS concentration 5 ng/ml). The 0.5 ml additions of test compound and LPS are usually sufficient to mix the contents of the wells. Three control mixtures are run per experiment, with either LPS alone, solvent vehicle control, and/or additional media to adjust the final culture volume to 2.0 ml. The cell cultures are incubated for 16-18 hr at 37° C. in the presence of 5% CO2.
At the end of the incubation period, cells are harvested and transferred to 15 ml conical centrifuge tubes. After centrifugation for 10 min at 200×g, supernatants are harvested and transferred to 1.5 ml Eppendorf tubes. It may be noted that the cell pellet may be utilized for a biochemical evaluation of pre-IL-1S and/or mature IL-1β content in cytosol extracts by western blotting or ELISA with pre-IL-1β specific antisera.
PBMC are isolated and prepared as described above. Media (1.0 ml) is first added to wells followed by 0.5 ml of the PBMC suspension. After a one hour incubation, plates are gently shaken and nonadherent cells aspirated from each well. Wells are then gently washed three times with 1.0 ml of media and final resuspended in 1.0 ml media. The enrichment for adherent cells generally yields 2.5−3.0×10^5 cells per well. The addition of test compounds, LPS, cell incubation conditions and processing of supernatants proceeds as described above.
We have used Quantikine kits (R&D Systems) for measurement of mature IL-1β. Assays are performed according to the manufacturer's directions. Mature IL-1β levels of about 1-3 ng/ml in both PBMC and adherent mononuclear cell positive controls are observed. ELISA assays are performed on 1:5, 1:10 and 1:20 dilutions of supernatants from LPS-positive controls to select the optimal dilution for supernatants in the test panel.

[1] = Homo sapiens, PBMC, Example 4 table
[2] = Homo sapiens, PBMC, Example 6 table
[3] = Homo sapiens, PBMC, Example 2 table

SMILES | IC50 [1] [µM] | IC50 [2] [µM] | other results
CC(C)[C@H](NC(=O)OCc1ccccc1)C(=O)N[C@@H](C)C(=O)N[C@H](CC(=O)O)C(=O)COCc1c(Cl)cccc1Cl (mixture of isomers) [Compound 84a, (R,S)N-[N-(Phenylmethyloxy)carbonyl-valinyl-alaninyl]-3-amino-5-(2,6-dichlorophenylmethyloxy)-4-oxo-pentanoic acid] | 3.3 |  | 
CC(C(=O)N[C@H](C=O)CC(=O)O)N1CCN(Cc2ccccc2)C[C@H](NC(=O)OCc2ccccc2)C1=O (mixture of isomers) [Compound 114a, 3(S)-{2(R,S)-[4-Benzyl-7-oxo-6(S)-(N-benzyloxycarbonylamino)-[1,4]diazepan-1-yl]-propionylamino}-4-oxo-butyric acid trifluoroacetic acid salt] |  | 3.8 | 
CC(C(=O)N[C@H](C=O)CC(=O)O)N1CCN(C(=O)CCc2ccccc2)C[C@H](NC(=O)CCc2ccccc2)C1=O (mixture of isomers) [Compound 115, 4-Oxo-3(S)-{2(R,S)-[7-oxo-4-(3-phenyl-propionyl)-6(S)-(3-phenyl-propionylamino)-[1,4]diazepan-1-yl]-propionylamino}-butyric acid] |  | 6 | 
C[C@H](NC(=O)c1nc(CCCc2ccccc2)c[nH]1)C(=O)N[C@H](C=O)CC(=O)O [Compound 20d, (3S)3-{N-[4-(3-Phenylpropyl)imidazole-2-carbonyl]-L-alaninyl}amino-4-oxo-butanoic acid] | 6.2 |  | 
COc1ccc(CCCc2cnc(C(=O)N3C[C@H](Oc4ccccc4)C[C@H]3C(=O)N[C@H](C=O)CC(=O)O)[nH]2)cc1 [Compound 22e, 3(S)-[(1-{5-[3-(4-Methoxyphenyl)propyl]-1H-imidazole-2-carbonyl}-4(R)-phenoxypyrrolidine-2(S)-carbonyl)amino]-4-oxobutanoic acid] |  | > 20 | 
C[C@H](NC(=O)c1cnc(CCc2ccccc2)[nH]1)C(=O)N[C@H](C=O)CC(=O)O [Compound 33a, (3S)3-{N-[2-(2-Phenylethyl)imidazole-4-carbonyl]-L-alaninyl}amino-4-oxobutanoic acid] | 25 |  | IC50 [3]: 25 µM
C[C@H](NC(=O)c1cnc(Cc2ccccc2)[nH]1)C(=O)N[C@H](C=O)CC(=O)O [Compound 33c, (3S)3-[N-(2-Benzylimidazole-4-carbonyl)-L-alaninyl]amino-4-oxobutanoic acid] | 20 |  | IC50 [3]: 20 µM
C[C@@H](C(=O)N[C@H](C=O)CC(=O)O)n1cccc(NC(=O)CCc2ccccc2)c1=O [Compound 54a] | 2.7 |  | IC50 (Example 2 table): 2 to 4 µM
O=C[C@H](CC(=O)O)NC(=O)Cn1c(Cc2ccccc2)ccc(NC(=O)CCc2ccccc2)c1=O [Compound 54b, 3(S)3-(6-Benzyl-1,2-dihydro-2-oxo-3-(3-phenylpropionyl)amino-1-pyridyl)acetylamino-4-oxobutanoic acid] | 9.1 | 20 | 
C=CCO[C@@H]1C[C@@H](C(=O)N[C@H](C=O)CC(=O)O)N(C(=O)[C@@H](NC(=O)[C@H](Cc2ccc(O)cc2)NC(C)=O)C(C)C)C1 [Compound 85, N-(N-Acetyl-tyrosinyl-valinyl-(4(R)-allyloxyprolinyl))-3(S)-amino-4-oxobutanoic acid] (Ac-YV[Hyp](Allyl)D-aldehyde) |  | 9.8 | 
O=C(O)C[C@H](NC(=O)[C@@H]1CCc2ncc(NC(=O)CCc3ccccc3)c(=O)n21)C(=O)COC(=O)c1c(Cl)cccc1Cl [Compound 102a, 2,6-Dichloro-benzoic acid 4-carboxy-2-oxo-(3S)-{[4-oxo-3-(3-phenyl-propionylamino)-4,6,7,8-tetrahydro-pyrrolo[1,2-a]pyrimidine-(6S)-carbonyl]-amino}-butyl ester] |  | 4 | 
C[C@H](NC(=O)CN1C(=O)[C@@H](NC(=O)CCc2ccccc2)CN(C(=O)CCc2ccccc2)c2ccccc21)C(=O)C(=O)O [Compound 106b, 2-Oxo-3(S)-{2-[2-oxo-5-(3-phenylpropionyl)-3(S)-(3-phenyl-propionyl-amino)-2,3,4,5-tetrahydrobenzo[b][1,4]diazepin-1-yl]acetylamino}butyric acid] |  | 2.9 | 
O=C(O)C[C@H](NC(=O)CN1C(=O)[C@@H](NC(=O)CCc2ccccc2)CN(C(=O)CCc2ccccc2)c2ccccc21)C(=O)COC(=O)c1c(Cl)cccc1Cl [Compound 108a, 2,6-Dichlorobenzoic acid 4-carboxy-2-oxo-3(S)-{2-[2-oxo-5-(3-phenylpropionyl)-3(S)-(3-phenylpropionylamino)-2,3,4,5-tetrahydrobenzo[b][1,4]diazepin-1-yl]acetylamino}butyl ester] |  | 17.5 | 
C[C@@H](C(=O)N[C@@H](CC(=O)O)C(=O)COC(=O)c1c(Cl)cccc1Cl)n1cccc(NC(=O)CCc2ccccc2)c1=O [Compound 130] |  | 1.2 | 
O=C(O)C[C@H](NC(=O)[C@@H]1CCCN2C(=O)CC[C@H](NC(=O)CCc3ccccc3)C(=O)N12)C(=O)COC(=O)c1c(Cl)cccc1Cl [Compound 136] |  | 1 | 
CS(=O)(=O)N[C@H]1CCC(=O)N2CCC[C@@H](C(=O)N[C@@H](CC(=O)O)C(=O)COC(=O)c3c(Cl)cccc3Cl)N2C1=O [Compound 138] |  | 0.375 | 
C[C@H](NC(=O)c1ncc[nH]1)C(=O)N[C@@H](CC(=O)O)C(=O)COC(=O)c1c(Cl)cccc1Cl [Compound 142] |  | 1.75 | 
CC(=O)N[C@@H](Cc1ccc(O)cc1)C(=O)N[C@H](C(=O)N1C[C@H](OCc2ccccc2)C[C@H]1C(=O)N[C@H](C=O)CC(=O)O)C(C)C [Compound K, N-[N-Acetyl-tyrosinyl-valinyl-(4-benzyloxy)prolinyl]-3-amino-4-oxobutanoic acid] (Ac-YV[Hyp](Bn)D-aldehyde) |  |  | IC50 [3]: 2 to 11 µM
CC(=O)N[C@@H](Cc1ccc(O)cc1)C(=O)N[C@H](C(=O)N1C[C@H](Oc2ccccc2)C[C@H]1C(=O)N[C@H](C=O)CC(=O)O)C(C)C [I, N-(N-Acetyl-tyrosinyl-valinyl-(4-phenoxyprolinyl))-3-amino-4-oxobutanoic acid] (Ac-YV[Pro(4R-OPh)]D-aldehyde) |  |  | IC50 [3]: 2.6 µM
CC(=O)N[C@@H](Cc1ccc(O)cc1)C(=O)N[C@H](C(=O)N1C[C@H](O)C[C@H]1C(=O)N[C@H](C=O)CC(=O)O)C(C)C [J, N-[N-Acetyl-tyrosinyl-valinyl-(4-hydroxyprolinyl)]-3-amino-4-oxobutanoic acid] (Ac-YV[Hyp]D-aldehyde) |  |  | IC50 [3]: 5 to 7 µM
